How the values were obtained:
Estrogen receptor = Estrogen receptor (Homo sapiens, UniProt Q92731+P03372); assay: Inhibition of estradiol induced estrogen receptor transcriptional activation in MCF-7-2a cells; type: functional, cell-based
MCF7 = assay: Inhibition of MCF-7 cell proliferation at 5 uM; type: functional, Homo sapiens

IC50 (Estrogen receptor) [nM] | Structure (SMILES) | T/C corr (MCF7) [%]
70 | CCCC(=C(c1ccc(O)cc1)c1ccc(O)cc1)c1ccc(O)cc1 | 102
 | CC/C(=C(\c1ccc(O)cc1)c1ccc(OCCN(C)C)cc1)c1ccccc1 | 25
240 | CCCCC(=C(c1ccc(O)cc1)c1ccc(O)cc1)c1ccc(O)cc1 | 114
10 | CCC(=C(c1ccc(O)cc1)c1ccc(O)cc1)c1ccc(O)cc1 | 97
 | CC/C(=C(\c1ccccc1)c1ccc(OCCN(C)C)cc1)c1ccccc1 [TAMOXIFEN] | 15
15 | CC(=C(c1ccc(O)cc1)c1ccc(O)cc1)c1ccc(O)cc1 | 88
200 | Oc1ccc(C=C(c2ccc(O)cc2)c2ccc(O)cc2)cc1 | 70

Source: ChEMBL document CHEMBL1136763, “Antiestrogenically active 1,1,2-tris(4-hydroxyphenyl)alkenes without basic side chain: synthesis and biological activity” (J Med Chem, 2003)
